According to US6852735B1, “Siastatin B derivatives having a glycosidase inhibitory activity and processes for producing the same” (Zaidan Hojin Biseibutsu Kagaku Kenkyu Kai, priority 1998, dated 2005):

Assays:
[1] = target: T1, β-D-galactosidase (from Aspergillus niger) (Aspergillus niger, UniProt P29853); experiment: β-galactosidase inhibition (Test Example 3); type: biochemical; conditions: for inhibition of β-D-galactosidase, in words: summary of Table 1
T1 construct: originated from Aspergillus niger; purchased Sigma Company; host or cells: Aspergillus niger
T1 sequence (P29853 20-1006): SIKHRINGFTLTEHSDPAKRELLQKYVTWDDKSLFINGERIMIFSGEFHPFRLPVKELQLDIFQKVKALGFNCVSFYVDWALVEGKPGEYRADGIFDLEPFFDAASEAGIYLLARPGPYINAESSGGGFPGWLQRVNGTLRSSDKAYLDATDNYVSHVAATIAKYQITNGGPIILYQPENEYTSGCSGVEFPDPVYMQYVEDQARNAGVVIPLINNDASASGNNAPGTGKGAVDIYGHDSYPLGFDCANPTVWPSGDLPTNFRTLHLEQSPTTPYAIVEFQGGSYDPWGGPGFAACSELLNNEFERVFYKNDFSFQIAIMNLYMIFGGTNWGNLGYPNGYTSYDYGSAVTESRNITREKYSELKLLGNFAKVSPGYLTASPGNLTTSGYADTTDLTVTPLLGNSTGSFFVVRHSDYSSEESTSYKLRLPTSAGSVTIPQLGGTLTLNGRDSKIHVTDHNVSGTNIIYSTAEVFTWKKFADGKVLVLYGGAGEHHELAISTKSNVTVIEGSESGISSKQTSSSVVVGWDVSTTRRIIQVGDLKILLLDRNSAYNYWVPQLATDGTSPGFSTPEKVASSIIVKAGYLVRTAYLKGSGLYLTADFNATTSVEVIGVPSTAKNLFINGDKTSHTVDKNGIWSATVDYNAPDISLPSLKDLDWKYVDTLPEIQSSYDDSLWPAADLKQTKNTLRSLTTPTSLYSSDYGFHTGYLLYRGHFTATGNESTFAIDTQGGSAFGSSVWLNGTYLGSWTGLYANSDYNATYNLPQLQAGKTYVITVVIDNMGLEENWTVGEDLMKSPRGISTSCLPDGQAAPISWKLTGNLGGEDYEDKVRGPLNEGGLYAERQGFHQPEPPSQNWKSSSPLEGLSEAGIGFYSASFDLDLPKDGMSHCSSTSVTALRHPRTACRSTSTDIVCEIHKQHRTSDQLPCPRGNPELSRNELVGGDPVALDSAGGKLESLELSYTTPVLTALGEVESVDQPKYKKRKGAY
Procedure: (§1) Thus, 0.5 mL of 0.025M citrate-phosphate buffer (pH 4.0), 0.1 mL of the same buffer containing 10 mM p-nitro-phenyl-N-acetyl-α-D-galactosaminide dissolved therein, and 0.1 mL of either water or an aqueous solution containing as the test compound any one of the compounds of the formulae (I), (V) and (X) according to this invention were mixed with each other and pre-incubated in a 96-wells titer plate at 37° C. for 10 minutes. After the completion of the pre-incubation, to the pre-incubated mixture was added 0.01 mL of 0.025 M citrate-phosphate buffer containing α-N-acetyl-galactosaminidase originated from chicken liver (a product of Sigma Company) which was dissolved in said buffer as a glycosidase to be tested. Thereafter, the enzymatic reaction was conducted at 37° C. for 30 minutes.
(§2) After the enzymatic reaction, to the reaction solution was added 1.0 mL of 0.3M glycine—sodium hydroxide buffer (pH 10.5), in order to terminate the enzymatic reaction. Thereafter, the absorbance [designated as value (a)] of light at 405 nm of the resulting reaction solution was measured. Concurrently, measurement was made of the absorbance [designated as value (b)] at 405 nm of the reaction solution as obtained in the control test where the enzymatic reaction was conducted without addition of the test compound. Further, measurements were made of the absorbance [designated as values (a′)] and the absorbance [[designated as values (b′)] at 405 nm of the solutions as obtained in the blank test and the control test, respectively, where the enzymatic reaction was not conducted in the assay test. The rate of inhibition to […] was calculated by the equation: [1-(a-a′)/(b-b′)]×100.
(§3) The test results obtained are summarized as IC50 value in Table 1 below.
This Test Example is a test example for determining the α-galactosidase or β-galactosidase-inhibitory activity of the compound of the formula (I), (V) or (X) according to this invention.
The evaluation of the α-galactosidase or β-galactosidase-inhibitory activity was conducted according to a modification of the method described in the “Journal of Biological Chemistry”, 240, p.2468 (1965).
Namely, the test was conducted in the same manner as the test for the enzyme-inhibitory activity described in Test Example 1, but with using α-galactosidase or β-galactosidase (products of by Sigma Company) originated from Aspergillus niger, as the glycosidase enzyme, and with using p-nitrophenyl-α-D-galactoside and p-nitrophenyl-β-D-galactoside as the substrate. Furthermore, absorbances of light at 405 nm were measured in the same manner as in Test Example 1. IC50 values of the test compound capable of giving the 50% inhibition to the enzymes were calculated.

[2] = target: T2, α-N-acetylgalactosaminidase (from chicken liver) (Gallus gallus, UniProt Q90744); experiment: α-N-acetylgalactosaminidase inhibition (Test Example 1); type: biochemical; conditions: for IC50: α-N-acetylgalactosaminidase from chicken liver, substrate p-nitrophenyl-N-acetyl-α-D-galactosaminide, pH 4.0, 37° C., 30 minutes, read-out: 50% inhibiory concentration (IC50) Enzyme A (converted)
T2 construct: originated from chicken liver (a product of Sigma Company); purchased Sigma Company; host or cells: chicken liver
T2 sequence (Q90744 1-405): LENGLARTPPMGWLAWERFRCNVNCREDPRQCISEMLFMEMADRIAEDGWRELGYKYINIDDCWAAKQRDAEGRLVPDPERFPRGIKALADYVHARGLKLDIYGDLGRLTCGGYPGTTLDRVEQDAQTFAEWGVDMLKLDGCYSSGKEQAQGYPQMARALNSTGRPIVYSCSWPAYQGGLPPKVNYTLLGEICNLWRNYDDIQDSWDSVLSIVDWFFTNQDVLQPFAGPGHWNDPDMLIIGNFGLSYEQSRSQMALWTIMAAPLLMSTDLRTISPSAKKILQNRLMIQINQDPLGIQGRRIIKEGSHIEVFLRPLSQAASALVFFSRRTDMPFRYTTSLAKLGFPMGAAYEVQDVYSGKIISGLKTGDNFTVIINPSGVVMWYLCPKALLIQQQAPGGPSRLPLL
Procedure: This Test Example is a test example for determining the N-acetylgalactosaminidase-inhibitory activity of the compound of the formula (I), (V) or (X) according to this invention.
Assay of the N-acetylgalactosaminidase-inhibitory activity was conducted according to a modification of the method described in the “Journal of Biological Chemistry”, 252, pp.5194-5200(1977).
as §1, §2, §3

Row | Structure (SMILES) | IC50 [1] | inhibition of β-D-galactosidase, in words [1] | inhibition of N-acetyl-galactosaminidase, in words ([2]; summary of Table 1) | IC50 [2]
1 | O=C(N[C@H]1NC[C@H](CO)[C@H](O)[C@@H]1O)C(F)(F)F [Formula (I), 6-deacetamido-3-decarboxy-3-hydroxymethyl-6-trifluoroacetamido-siastain B] | 0.194 µM | inhibit strongly | inhibit strongly | 2.52 µM
2 | CC(=O)NC1NCC(CO)C(O)C1O (stereo not drawn) [Formula (V), 3-decarboxy-4-epi-3-hydroxymethyl-siastain B] | > 490 µM | – | – | > 490 µM
3 | O=C(N[C@H]1NC[C@H](CO)[C@@H](O)[C@@H]1O)C(F)(F)F [Formula (X), 6-deacetamido-3-decarboxy-4-epi-3-hydroxymethyl-6-trifluoroacetamido-siastain B] | 232 µM | inhibit strongly | – | > 387 µM
